Measured values taken from PMC12596218 (Journal of Lipid Research, 2025).
Where “and” joins values, the source holds several entries; their conditions need not be identical. Equal values may be shown once.

Key:
[1] = molecular target: T1, OATP2B1 (Homo sapiens, UniProt O94956); assay: [3H]E1S transport inhibition assay in OATP2B1-HEK293 cells; type: cell-based; details: 200 nM [3H]E1S, 10 min; two independent experiments
T1 construct: stably transfected with the full open reading frames of human NTCP, ASBT, SOAT, OATP1B1, OATP1B3, OATP2B1, and murine Asbt (mAsbt); expressed in transfected cells; host or cells: HEK293, stably transfected (OATP2B1-HEK), tetracycline-induced
T1 sequence (O94956 1-709): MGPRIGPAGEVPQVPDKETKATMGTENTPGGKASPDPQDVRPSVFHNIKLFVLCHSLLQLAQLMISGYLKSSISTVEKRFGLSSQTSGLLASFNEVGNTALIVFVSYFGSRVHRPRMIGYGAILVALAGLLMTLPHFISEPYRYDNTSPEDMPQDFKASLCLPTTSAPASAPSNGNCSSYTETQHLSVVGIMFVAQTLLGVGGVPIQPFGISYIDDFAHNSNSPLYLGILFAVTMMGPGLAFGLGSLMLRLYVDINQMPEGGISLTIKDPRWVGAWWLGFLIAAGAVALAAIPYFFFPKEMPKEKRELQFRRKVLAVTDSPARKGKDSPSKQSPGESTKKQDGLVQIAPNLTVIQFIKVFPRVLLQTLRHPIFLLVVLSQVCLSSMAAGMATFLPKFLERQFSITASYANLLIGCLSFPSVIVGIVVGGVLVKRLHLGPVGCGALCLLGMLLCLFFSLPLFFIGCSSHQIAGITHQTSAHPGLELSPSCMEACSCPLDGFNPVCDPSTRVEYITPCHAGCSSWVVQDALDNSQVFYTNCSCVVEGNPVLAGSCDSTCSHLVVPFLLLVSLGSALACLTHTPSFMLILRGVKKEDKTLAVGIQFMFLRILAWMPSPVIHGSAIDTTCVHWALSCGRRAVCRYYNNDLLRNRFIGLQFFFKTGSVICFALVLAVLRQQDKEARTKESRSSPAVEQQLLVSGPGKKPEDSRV
Source text: (§1) Human embryonic kidney HEK293 cells, stably transfected with the full open reading frames of human NTCP, ASBT, SOAT, OATP1B1, OATP1B3, OATP2B1, and murine Asbt (mAsbt) were used as reported ([18], [20], [21], [22], [23]). The NTCP, ASBT, and mAsbt constructs were C-terminally tagged with the FLAG epitope, and the SOAT construct was C-terminally tagged with green fluorescent protein. Non-transfected Flp-In HEK293 cells (Thermo Fisher Scientific) served as the control. All cell lines were maintained at 37°C, 5% CO2 and 95% humidity in DMEM/F-12 medium (Thermo Fisher Scientific) supplemented with 10% fetal calf serum (Sigma-Aldrich), 4 mM L-glutamine (PAA) and penicillin/streptomycin (PAA). Expression of the respective carrier protein was induced by tetracycline treatment at 1 μg/ml (Carl Roth GmbH + Co. KG).
(§2) Cells were seeded onto poly-L-lysine-coated 96-well plates, induced with 1 μg/ml tetracycline, and grown to confluence over 72 h at 37°C. Then, cells were washed with tempered (37°C) phosphate-buffered saline (PBS, containing 137.0 mM NaCl, 2.7 mM KCl, 1.5 mM KH2PO4, and 7.3 mM Na2HPO4, at pH 7.4) and preincubated with 80 μl sodium transport buffer (STB, containing 142.9 mM NaCl, 4.7 mM KCl, 1.2 mM MgSO4, 1.2 mM KH2PO4, 1.8 mM CaCl2, and 20.0 mM HEPES, at pH 7.4) for 5 min at 37°C. For inhibition studies, the medium was replaced by 80 μl STB containing the respective inhibitor or solvent alone and cells were further incubated for 5 min at 37°C. Transport experiments were started by adding 20 μl of a 5-fold concentrated substrate solution (solved in STB). For transport experiments under sodium-free conditions the same buffer composition was used as for STB, but sodium chloride was substituted with equimolar concentrations of choline chloride as previously reported ([20], [24]). Transport experiments were stopped by washing twice with ice-cold PBS and the plates were kept cool on ice until adding the lysis buffer [1% sodium dodecyl sulfate (SDS) and 1 N NaOH]. Then, the cell-associated radioactivity of the respective tritium-labeled substrate or ligand was quantified by liquid scintillation counting using MicroScint-20 scintillation cocktail (Revvity) in a Packard Microplate Scintillation Counter TopCount NXT (Packard Instrument Company). For IC50 transport inhibition measurements, the mean uptake values measured in non-carrier-expressing HEK293 control cells were defined as 0% uptake control and were subtracted from all other values. Values from cells without inhibitor and solvent alone were set to 100%. Finally, all net transport data were expressed as uptake or binding as % of control. All transport or inhibition graphs were generated with GraphPad Prism 6 (GraphPad). Determination of half maximal inhibitory concentrations (IC50) was done by nonlinear regression analysis using the equation log (inhibitor) versus response—variable slope settings. All data points of the IC50 curves represent means ± SD of quadruplicate determinations. For Km measurements, BS uptake in the absence of sodium was regarded as carrier-independent unspecific uptake and was subtracted from the transport rates in the presence of sodium to obtain carrier-specific uptake rates (indicated as dashed lines). From the specific uptake rates, Michaelis Menten Km values were calculated by non-linear regression analysis.

[2] = molecular target: T2, OATP1B3 (Homo sapiens, UniProt Q9NPD5); assay: [3H]BSP transport inhibition assay in OATP1B3-HEK293 cells; type: cell-based; details: 1 μM [3H]BSP, 10 min; two independent experiments
T2 construct: stably transfected with the full open reading frames of human NTCP, ASBT, SOAT, OATP1B1, OATP1B3, OATP2B1, and murine Asbt (mAsbt); expressed in transfected cells; host or cells: HEK293, stably transfected (OATP1B3-HEK), tetracycline-induced
T2 sequence (Q9NPD5 1-702): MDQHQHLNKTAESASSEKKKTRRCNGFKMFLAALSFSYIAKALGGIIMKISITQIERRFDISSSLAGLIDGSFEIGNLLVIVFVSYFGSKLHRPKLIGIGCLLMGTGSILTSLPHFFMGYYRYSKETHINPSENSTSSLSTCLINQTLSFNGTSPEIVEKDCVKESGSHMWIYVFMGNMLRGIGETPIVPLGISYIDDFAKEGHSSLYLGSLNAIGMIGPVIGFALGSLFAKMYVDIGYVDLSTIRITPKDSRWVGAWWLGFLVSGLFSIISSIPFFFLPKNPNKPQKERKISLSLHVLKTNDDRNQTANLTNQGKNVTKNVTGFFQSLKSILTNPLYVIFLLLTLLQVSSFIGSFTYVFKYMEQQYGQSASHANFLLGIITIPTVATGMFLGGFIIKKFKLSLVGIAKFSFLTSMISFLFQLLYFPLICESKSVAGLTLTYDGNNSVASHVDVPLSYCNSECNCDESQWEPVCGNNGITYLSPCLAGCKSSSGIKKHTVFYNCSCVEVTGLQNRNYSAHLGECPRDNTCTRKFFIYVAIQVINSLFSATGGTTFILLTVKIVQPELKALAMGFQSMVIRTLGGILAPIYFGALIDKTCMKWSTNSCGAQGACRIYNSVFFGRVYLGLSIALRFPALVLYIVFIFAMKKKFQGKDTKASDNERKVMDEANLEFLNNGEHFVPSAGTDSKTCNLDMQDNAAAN
Source text: as §1, §2

Row | SMILES | IC50 [1] | IC50 [2]
1 | CCCCC1(CCCC)CS(=O)(=O)c2ccc(N(C)C)cc2[C@@H](c2ccc(OCCCC[N+]34CCN(CC3)CC4)cc2)[C@H]1O [SC-435] | > 10 µM and 40.3 µM and 36.5 µM | 2 to 8 µM and 7.8 µM and 5.1 µM
2 | CCCCC1(CCCC)CN(c2ccccc2)c2cc(SC)c(OCC(=O)N[C@@H](C(=O)NCC(=O)O)c3ccccc3)cc2S(=O)(=O)C1 [elobixibat] | 3.9 µM and 3.6 µM | 4.8 µM and 4.2 µM
3 | CCCC[C@]1(CC)CS(=O)(=O)c2cc(CNC(CC(=O)O)CC(=O)O)c(OC)cc2[C@@H](c2ccccc2)N1 [linerixibat] | > 10 µM and 26.1 µM and 22.5 µM | 2 to 8 µM and 3.6 µM and 2.2 µM
4 | CCCCC1(CCCC)CS(=O)(=O)c2ccc(N(C)C)cc2[C@@H](c2ccc(OCc3ccc(C[N+]45CCN(CC4)CC5)cc3)cc2)[C@H]1O [maralixibat] | 7.5 µM and 6 µM | 5.5 µM and 5.2 µM
5 | CCCCC1(CCCC)CN(c2ccccc2)c2cc(SC)c(OCC(=O)N[C@@H](C(=O)N[C@@H](CC)C(=O)O)c3ccc(O)cc3)cc2S(=O)(=O)N1 [odevixibat] | 5.1 µM and 4 µM | 5.1 µM and 4.3 µM
